Reference: US9133207B2, “Tetrandrine derivatives with substituted 5-carbon, preparation method and use thereof” (Hangzhou Bensheng Pharmaceutical Co., Ltd., priority 2011, dated 2015)
Converted amounts (≈) assume the structure as drawn.

Columns and labels:
[1] = tested on: Kasumi-1 (acute myeloid leukemia M2 type, AML-M2); assay: Leukemia cell growth inhibition, MTT, 72 h (Example 5); type: cell-based, human; settings: for IC50 / IC90: Homo sapiens, Kasumi 1
Description: (§1) Leukemia cell lines: leukemia cell lines: K562/adr (drug-resistant, chronic myeloid leukemia, CML), NB4 (acute promyelocytic leukemia, AML), Kasumi-1 (acute myeloid leukemia M2 type, AML-M2), Jurkat (acute lymphoblastic leukemia, ALL), all of which are donated by Cancer Research Institute of Zhejiang University, China; and H9 (acute lymphoblastic leukemia, ALL), which is purchased from China Center for Type Culture Collection.
(§2) Reagents: The standard sample of tetrandrine (TTD) is purchased from Ci Yuan Biotechnology Co., Ltd., Shaanxi, China; and the 5-substituted tetrandrine derivatives of the present invention.
(§3) Obtaining 6000 well-growing leukemia cells and inoculating them into wells of a 96-well cell culture plate. The culture medium is a 1640 cell culture medium containing 10% fetal bovine serum. After adding the tetrandrine derivatives of different concentrations and mixing uniformly, placing the plate in a carbon dioxide cell incubator (5% CO2) at 37° C. and incubating for 72 hours. Then the viable cell concentration is determined by the MTT method.

[2] = tested on: Jurkat (acute lymphoblastic leukemia, ALL); assay: as above; type: cell-based, human; settings: 72 h, MTT; for IC50 / IC90: Homo sapiens, Jurkat
Description: as §1, §2, §3

[3] = tested on: K562/adr (drug-resistant, chronic myeloid leukemia, CML); assay: as above; type: cell-based, human; settings: 72 h, MTT; for IC50 / IC90: Homo sapiens, K562/Adr
Description: as §1, §2, §3

[4] = tested on: H9 (acute lymphoblastic leukemia, ALL); assay: as above; type: cell-based, human; settings: 72 h, MTT; for IC50 / IC90: Homo sapiens
Description: as §1, §2, §3

[5] = tested on: MGC 803 (human gastric cancer cell); assay: Solid tumor cell growth inhibition, MTT, 72 h (Example 7); type: cell-based; settings: for IC50 / IC90: Homo sapiens
Procedure: (§4) Human solid tumor cell lines: Hep-2 (laryngeal carcinoma), A549 (human lung cancer), CaES-17 (esophageal cancer cell), PC-3 (prostate cancer), CNE (nasopharyngeal carcinoma cell) and SK-OV-3 (ovarian cancer cell), all of which are purchased from China Center For Type Culture Collection; RKO (human colon adenocarcinoma cell), MGC 803 (human gastric cancer cell), MG63 (osteosarcoma), and U87 MG (malignant glioma cell), all of which are purchased from Fuxiang Bio-tech Co. Ltd., Shanghai, China; PANC-1 (pancreatic cancer), Huh? (human liver cancer cell), Becap37 (human breast cancer cell), and Hela (human cervical cancer cell), all of which are donated by Cancer Research Institute of Zhejiang University, China.
(§5) Reagents: the same as in Example 5.
(§6) Obtaining 4000 well-growing human solid tumor cells and inoculating them into wells of a 96-well cell culture plate. The culture medium is DMEM High Glucose cell culture medium containing 10% fetal bovine serum. The plate is placed in a carbon dioxide cell incubator (5% CO2) at 37° C. and incubated for 24 hours. After been added with tetrandrine derivatives of different concentration and mixing uniformly, the plate is placed in a carbon dioxide cell incubator (5% CO2) at 37° C. and incubated for 72 hours. Then the viable cell concentration is determined by the MTT method and the cell viability (%) after drug treatment is calculated. In this experiment, the cell viability of control group (not treated with any compound) is set as 100%.

[6] = tested on: Becap37 (human breast cancer cell); assay: as above; type: cell-based; settings: 72 h, MTT, Becap-37; for IC50 / IC90: Homo sapiens
Procedure: as §4, §5, §6

A549 (human lung cancer) = assay: as above; type: cell-based; settings: 72 h, MTT, A549; for IC50 / IC90: Homo sapiens
Procedure: as §4, §5, §6

[7] = tested on: Huh7 (human liver cancer cell); assay: as above; type: cell-based; settings: 72 h, MTT, Huh-7; for IC50 / IC90: Homo sapiens
Procedure: as §4, §5, §6

PC-3 (prostate cancer) = assay: as above; type: cell-based, human; settings: 72 h, MTT, PC-3
Procedure: as §4, §5, §6

MG63 (osteosarcoma) = assay: as above; type: cell-based, human; settings: 72 h, MTT, MG-63; for IC50 / IC90: Homo sapiens
Procedure: as §4, §5, §6

[8] = tested on: PANC-1 (pancreatic cancer); assay: as above; type: cell-based, human; settings: 72 h, MTT, PANC-1; for IC50 / IC90: Homo sapiens
Procedure: as §4, §5, §6

[9] = tested on: CaES-17 (esophageal cancer cell); assay: as above; type: cell-based, human; settings: 72 h, MTT, CAES-17; for IC50 / IC90: Homo sapiens, CaEs17
Procedure: as §4, §5, §6

[10] = tested on: RPMI8226 (multiple myeloma); assay: Multiple myeloma cell growth inhibition, MTT, 72 h (Example 6); type: cell-based, human; settings: 72 h, MTT, RPMI8226; for IC50 / IC90: Homo sapiens, RPMI-8226
Procedure: Multiple myeloma and lymphoma cell lines: RPMI8226 (multiple myeloma), purchased from Fuxiang Bio-tech Co. Ltd., Shanghai, China.
as §5
as §3, with “incubated” for “incubating”

SMILES: COc1ccc2cc1Oc1ccc(cc1)C[C@H]1c3cc(c(OC)cc3CCN1C)Oc1c(OC)c(OC)c(CO)c3c1[C@H](C2)N(C)CC3 [BS-TE-213]
- Kasumi-1 IC50 [1]: 7.74 µg/mL
- Kasumi-1 IC90 [1]: >16 µg/mL
- Jurkat IC50 [2]: >16 µg/mL
- Jurkat IC90 [2]: >16 µg/mL
- K562/ADR IC50 [3]: 3.70 µg/mL
- K562/ADR IC90 [3]: 11.11 µg/mL
- H9 IC50 [4]: >16 µg/mL
- H9 IC90 [4]: >16 µg/mL
- MGC-803 IC50 [5]: 18.95 µg/mL
- MGC-803 IC90 [5]: 64.43 µg/mL
- Becap-37 IC50 [6]: 9.95 µg/mL
- Becap-37 IC90 [6]: >10 µg/mL
- A549 IC50 (A549 (human lung cancer)): >16 µg/mL
- A549 IC90 (A549 (human lung cancer)): >16 µg/mL
- Huh-7 IC50 [7]: 8.54 µg/mL
- Huh-7 IC90 [7]: 15.09 µg/mL
- PC-3 IC50 (PC-3 (prostate cancer)): >10 µg/mL
- PC-3 IC90 (PC-3 (prostate cancer)): >10 µg/mL
- MG-63 IC50 (MG63 (osteosarcoma)): 9.93 µg/mL
- MG-63 IC90 (MG63 (osteosarcoma)): 26.11 µg/mL
- PANC-1 IC50 [8]: >10 µg/mL
- PANC-1 IC90 [8]: >10 µg/mL
- CAES-17 IC50 [9]: 9.89 µg/mL
- CAES-17 IC90 [9]: 30.16 µg/mL
- RPMI8226 IC50 [10]: 1.95 µg/mL
- RPMI8226 IC90 [10]: 8 µg/mL

SMILES: COc1ccc2cc1Oc1ccc(cc1)C[C@H]1c3cc(c(OC)cc3CCN1C)Oc1c(OC)c(OC)c(COC(=O)c3ccccc3)c3c1[C@H](C2)N(C)CC3 [BS-TE-224]
- IC50 [1]: 3.19 µg/mL (≈ 4.21 µM)
- IC90 [1]: 7.36 µg/mL (≈ 9.72 µM)
- IC50 [2]: 3.39 µg/mL (≈ 4.48 µM)
- IC90 [2]: 7.65 µg/mL (≈ 10.1 µM)
- IC50 [3]: 0.67 µg/mL (≈ 0.885 µM)
- IC90 [3]: 4.65 µg/mL (≈ 6.14 µM)
- IC50 [4]: 2.99 µg/mL (≈ 3.95 µM)
- IC90 [4]: 4.75 µg/mL (≈ 6.28 µM)
- IC50 [5]: 2.45 µg/mL (≈ 3.24 µM)
- IC90 [5]: 3.72 µg/mL (≈ 4.91 µM)
- IC50 [6]: 2.85 µg/mL (≈ 3.77 µM)
- IC90 [6]: 4.18 µg/mL (≈ 5.52 µM)
- IC50 (A549 (human lung cancer)): > 16 µg/mL
- IC90 (A549 (human lung cancer)): > 16 µg/mL
- IC50 [7]: 2.4 µg/mL (≈ 3.17 µM)
- IC90 [7]: 3.93 µg/mL (≈ 5.19 µM)
- IC50 (PC-3 (prostate cancer); Homo sapiens): 6.38 µg/mL (≈ 8.43 µM)
- IC90 (PC-3 (prostate cancer); Homo sapiens): 9 µg/mL (≈ 11.9 µM)
- IC50 (MG63 (osteosarcoma)): 2.76 µg/mL (≈ 3.65 µM)
- IC90 (MG63 (osteosarcoma)): 4.51 µg/mL (≈ 5.96 µM)
- IC50 [8]: 5.68 µg/mL (≈ 7.5 µM)
- IC90 [8]: 8.76 µg/mL (≈ 11.6 µM)
- IC50 [9]: 2.4 µg/mL (≈ 3.17 µM)
- IC90 [9]: 7.23 µg/mL (≈ 9.55 µM)
- IC50 [10]: 0.27 µg/mL (≈ 0.357 µM)
- IC90 [10]: 1.44 µg/mL (≈ 1.9 µM)

SMILES: COc1ccc2cc1Oc1ccc(cc1)C[C@H]1c3cc(c(OC)cc3CCN1C)Oc1c(OC)c(OC)c(CNc3nccs3)c3c1[C@H](C2)N(C)CC3 [BS-TE-320]
- IC50 [1]: 0.78 µg/mL (≈ 1.06 µM)
- IC90 [1]: 3.65 µg/mL (≈ 4.97 µM)
- IC50 [2]: 2 µg/mL (≈ 2.72 µM)
- IC90 [2]: 6.19 µg/mL (≈ 8.42 µM)
- IC50 [3]: 0.84 µg/mL (≈ 1.14 µM)
- IC90 [3]: 3.36 µg/mL (≈ 4.57 µM)
- IC50 [4]: 1.98 µg/mL (≈ 2.69 µM)
- IC90 [4]: 3.36 µg/mL (≈ 4.57 µM)
- IC50 [5]: 1.72 µg/mL (≈ 2.34 µM)
- IC90 [5]: 2.76 µg/mL (≈ 3.76 µM)
- IC50 [6]: 1.6 µg/mL (≈ 2.18 µM)
- IC90 [6]: 2.17 µg/mL (≈ 2.95 µM)
- IC50 (A549 (human lung cancer)): 2.98 µg/mL (≈ 4.05 µM)
- IC90 (A549 (human lung cancer)): 7.85 µg/mL (≈ 10.7 µM)
- IC50 [7]: 2 µg/mL (≈ 2.72 µM)
- IC90 [7]: 3.92 µg/mL (≈ 5.33 µM)
- IC50 (MG63 (osteosarcoma)): 1.1 µg/mL (≈ 1.5 µM)
- IC90 (MG63 (osteosarcoma)): 2.18 µg/mL (≈ 2.97 µM)
- IC50 [8]: 3.52 µg/mL (≈ 4.79 µM)
- IC90 [8]: 9.25 µg/mL (≈ 12.6 µM)
- IC50 [9]: 2.11 µg/mL (≈ 2.87 µM)
- IC90 [9]: 12.2 µg/mL (≈ 16.6 µM)
- IC50 [10]: 0.06 µg/mL (≈ 0.0816 µM)
- IC90 [10]: 2 µg/mL (≈ 2.72 µM)

SMILES: COc1ccc2cc1Oc1ccc(cc1)C[C@H]1c3cc(c(OC)cc3CCN1C)Oc1c(OC)c(OC)c(CN(C)C)c3c1[C@H](C2)N(C)CC3 [BS-TE-341]
- IC50 [1]: 5.64 µg/mL (≈ 8.3 µM)
- IC90 [1]: 16 µg/mL (≈ 23.5 µM)
- IC50 [2]: 9.14 µg/mL (≈ 13.4 µM)
- IC90 [2]: > 16 µg/mL
- IC50 [3]: 1.8 µg/mL (≈ 2.65 µM)
- IC90 [3]: 16 µg/mL (≈ 23.5 µM)
- IC50 [4]: 6.87 µg/mL (≈ 10.1 µM)
- IC90 [4]: 22.1 µg/mL (≈ 32.5 µM)
- IC50 [5]: 9.67 µg/mL (≈ 14.2 µM)
- IC90 [5]: 15.1 µg/mL (≈ 22.2 µM)
- IC50 [6]: 9.8 µg/mL (≈ 14.4 µM)
- IC90 [6]: > 10 µg/mL
- IC50 (A549 (human lung cancer)): > 16 µg/mL
- IC90 (A549 (human lung cancer)): > 16 µg/mL
- IC50 [7]: 4.71 µg/mL (≈ 6.93 µM)
- IC90 [7]: 7.88 µg/mL (≈ 11.6 µM)
- IC50 (MG63 (osteosarcoma)): 3.16 µg/mL (≈ 4.65 µM)
- IC90 (MG63 (osteosarcoma)): 9.8 µg/mL (≈ 14.4 µM)
- IC50 [8]: > 10 µg/mL
- IC90 [8]: > 10 µg/mL
- IC50 [9]: 4.8 µg/mL (≈ 7.06 µM)
- IC90 [9]: 25.8 µg/mL (≈ 37.9 µM)
- IC50 [10]: 0.35 µg/mL (≈ 0.515 µM)
- IC90 [10]: 3.31 µg/mL (≈ 4.87 µM)
